# Test results as given in patent publication US20250171451A1, “NOVEL HETEROCYCLIC COMPOUND AND PHARMACEUTICAL COMPOSITION COMPRISING SAME” (Samjin Pharmaceutical Co., Ltd., priority 2022, published 2025).
# How the values were obtained:
# [1] = test system: TEAD response element (TRE) luciferase reporter in MCF-7 cell lines; assay: TEAD response element (TRE) reporter assay; type: cell-based; details: Homo sapiens, MCF7; 0.2 μM compound, 24 hours, MCF-7 TEAD reporter cells, relative to vehicle (1% DMSO)
# Description: MCF-7 cell lines injected with TEAD reporter genes expressing firefly luciferase upon activation of TEAD response element (TRE) were obtained from BPS bioscience (#60618). The TEAD reporter genes were injected to stable expression in the MCF-7 cell lines.
# TEAD reporter genes expressing firefly luciferase upon activation of TEAD response element (TRE) were injected with TEAD reporter genes to ensure stable expression of the TEAD reporter genes. Here, the TEAD reporter genes expresses firefly luciferase upon activation of TEAD response element (TRE). The cells were cultured in a cell-only culture medium (BPS bioscience) to which 10 μg/mL insulin (Sigma) was added at 37° C. and 5% CO2.
# In 24 hours after dispensing said cells into a 96-well plate, each of the compounds of the examples or a vehicle solvent (final 1% DMSO) was treated by being diluted with a serum-free culture medium so that the final concentration became 0.2 μM. In 24 hours after said treatment, a luciferase assay working solution (ONE-Step Luciferase assay reagent; BPS bioscience) containing a luciferase substrate was treated in each well at 100 μL, and then left in a shaker for 15 minutes to be well mixed. Then, a degree of luminescence generated by luciferase expressed according to TEAD activation was measured by a microplate reader (TECAN). A relative activity of luciferase […], and the results are shown in table 8 below.
# [2] = biological target: T1, recombinant GST-TEAD1 proteins (209 to 426 a.a.) (Homo sapiens, UniProt P28347); assay: Evaluation of palmitoylation of TEAD protein; type: biochemical; details: 5 μM compound, 15 minutes preincubation, 3 μM alkyne palmitoyl-CoA 30 minutes, pH 6.4, vs DMSO control
# T1 construct: recombinant GST-TEAD1 proteins (209 to 426 a.a.)
# Description: Each compound corresponding to a concentration of 5 μM was added to recombinant GST-TEAD1 proteins (209 to 426 a.a.) and cultured for 15 minutes. For an autopalmitoylation reaction of proteins after culturing, 3 μM alkyne palmitoyl-CoA (Cayman chemical) and 50 mM MES buffer (pH 6.4) were added and cultured for 30 minutes, after which 1% of sodium dodecyl sulfate (SDS) was added to stop the reaction. After that, biotinylation was performed through a CLICK (Click chemistry tools) reaction, and then a protein solution was concentrated to prepare a sample.
# Analysis of the sample was performed using SDS-PAGE and streptavidin HRP (Thermo scientific). The resulting values were quantified using an Image J (NIH). For the intensity of the band obtained from Streptavidin blot, a palmitoylation inhibitory activity was analyzed based on the control group (DMSO). The normalization of each sample was performed using an anti-GST (91G1) (cell signaling) antibody.
# T1 sequence (P28347 209-426): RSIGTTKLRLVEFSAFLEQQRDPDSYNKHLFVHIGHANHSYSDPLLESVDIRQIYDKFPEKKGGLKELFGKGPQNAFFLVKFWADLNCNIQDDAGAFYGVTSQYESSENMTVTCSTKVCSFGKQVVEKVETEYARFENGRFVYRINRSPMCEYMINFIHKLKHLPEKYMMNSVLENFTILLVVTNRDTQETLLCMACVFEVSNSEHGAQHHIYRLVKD
inhibition at 5 µM [2] [%],Compound,inhibition at 0.2 µM [1] [%]
> 80,"C=CC(=O)Nc1cnc2c(c1)c(C)cn2-c1ccc(C(F)(F)F)c(OC)c1 [Compound 59, N-(1-(3-methoxy-4-(trifluoromethyl)phenyl)-3-methyl-1H-pyrrolo[2,3-b]pyridin-5-yl)acrylamide]",30 to 50
< 40,"C=CC(=O)Nc1cnc2c(c1)c(C)nn2-c1cccc(OC)c1 [Compound 73, N-(1-(3-methoxyphenyl)-3-methyl-1H-pyrazolo[3,4-b]pyridin-5-yl)acrylamide]",< 30
40 to 80,"C=CC(=O)Nc1cnc2c(c1)c(C)nn2-c1ccc(C(F)(F)F)c(Cl)c1 [Compound 72, N-(1-(3-chloro-4-(trifluoromethyl)phenyl)-3-methyl-1H-pyrazolo[3,4-b]pyridin-5-yl)acrylamide]",30 to 50
40 to 80,"C=CC(=O)Nc1cnc2c(c1)c(C)nn2-c1cnn(C(F)(F)F)c1 [Compound 101, N-(3-methyl-1-(1-(trifluoromethyl)-1H-pyrazol-4-yl)-1H-pyrazolo[3,4-b]pyridin-5-yl)acrylamide]",> 50
40 to 80,"C=CC(=O)Nc1cnc2c(c1)c(C)nn2-c1ccc(C(C)CC)cc1 (stereo not shown) [Compound 80, N-(1-(4-(sec-butyl)phenyl)-3-methyl-1H-pyrazolo[3,4-b]pyridin-5-yl)acrylamide]",30 to 50
< 40,"C=CC(=O)Nc1cnc2c(c1)c(C)nn2-c1ccccc1OC [Compound 81, N-(1-(2-methoxyphenyl)-3-methyl-1H-pyrazolo[3,4-b]pyridin-5-yl)acrylamide]",< 30
40 to 80,"C=CC(=O)Nc1cnc2c(c1)c(C)nn2-c1ccc(C(F)F)cc1 [Compound 69, N-(1-(4-(difluoromethyl)phenyl)-3-methyl-1H-pyrazolo[3,4-b]pyridin-5-yl)acrylamide]",30 to 50
> 80,"C=CC(=O)Nc1ccc2c(Br)nn(Cc3ccc(C(F)(F)F)cc3)c2c1 [Compound 38, N-(3-bromo-1-(4-(trifluoromethyl)benzyl)-1H-indazol-6-yl)acrylamide]",30 to 50
> 80,"C=CC(=O)Nc1cnc2c(c1)c(C)cn2CC1CCC(F)(F)CC1 [Compound 10, N-(1-((4,4-difluorocyclohexyl)methyl)-3-methyl-1H-pyrrolo[2,3-b]pyridin-5-yl)acrylamide]",> 50
40 to 80,"C=CC(=O)Nc1cnc2c(c1)c(C)nn2-c1ccc(OC(F)(F)F)nc1 [Compound 103, N-(3-methyl-1-(6-(trifluoromethoxy)pyridin-3-yl)-1H-pyrazolo[3,4-b]pyridin-5-yl)acrylamide]",> 50
40 to 80,"C=CC(=O)Nc1cnc2c(n1)c(C)cn2-c1ccc(C(F)(F)F)cc1 [Compound 41, N-(7-methyl-5-(4-(trifluoromethyl)phenyl)-5H-pyrrolo[2,3-b]pyrazin-2-yl)acrylamide]",> 50
40 to 80,"C=CC(=O)Nc1cnc2c(cnn2-c2ccc(C(F)(F)F)cc2)c1 [Compound 35, N-(1-(4-(trifluoromethyl)phenyl)-1H-pyrazolo[3,4-b]pyridin-5-yl)acrylamide]",> 50
40 to 80,"C=CC(=O)Nc1cnc2c(c1)c(C)nn2CCC(C)C [Compound 48, N-(1-isopentyl-3-methyl-1H-pyrazolo[3,4-b]pyridin-5-yl)acrylamide]",> 50
< 40,"CC=CC(=O)Nc1cnc2c(c1)c(C)cn2Cc1ccc(C(F)(F)F)cc1 [Compound 21, N-(3-methyl-1-(4-(trifluoromethyl)benzyl)-1H-pyrrolo[2,3-b]pyridin-5-yl)but-2-enamide]",< 30
< 40,"C=CC(=O)Nc1cnc2c(cnn2CCCOC(F)(F)F)c1 [Compound 12, N-(1-(3-(trifluoromethoxy)propyl)-1H-pyrazolo[3,4-b]pyridin-5-yl)acrylamide]",< 30
> 80,"C=CC(=O)Nc1ccc2c(c1)CCN2Cc1ccc(C(F)(F)F)cc1 [Compound 7, N-(1-(4-(trifluoromethyl)benzyl)indolin-5-yl)acrylamide]",> 50
40 to 80,"C=CC(=O)Nc1ccc2c(c1)c(C)nn2Cc1ccc(C(F)(F)F)cc1 [Compound 33, N-(3-methyl-1-(4-(trifluoromethyl)benzyl)-1H-indazol-5-yl)acrylamide]",> 50
< 40,"C=CC(=O)Nc1cnc2c(c1)c(C)nn2-c1ccccc1C(F)(F)F [Compound 82, N-(3-methyl-1-(2-(trifluoromethyl)phenyl)-1H-pyrazolo[3,4-b]pyridin-5-yl)acrylamide]",< 30
> 80,"C=CS(=O)(=O)Nc1cnc2c(c1)c(C)nn2-c1ccc(C(F)(F)F)cc1 [Compound 85, N-(3-methyl-1-(4-(trifluoromethyl)phenyl)-1H-pyrazolo[3,4-b]pyridin-5-yl)ethenesulfonamide]",> 50
40 to 80,"C=CC(=O)Nc1cnc2c(c1)c(C)nn2C1=CCC(C(F)(F)F)CC1 (stereo not shown) [Compound 68, N-(3-methyl-1-(4-(trifluoromethyl)cyclohex-1-en-1-yl)-1H-pyrazolo[3,4-b]pyridin-5-yl)acrylamide]",> 50
40 to 80,"C=CC(=O)Nc1cnc2c(c1)c(C)nn2CC1CCC(F)(F)CC1 [Compound 14, N-(1-((4,4-difluorocyclohexyl)methyl)-3-methyl-1H-pyrazolo[3,4-b]pyridin-5-yl)acrylamide]",> 50
40 to 80,"C=CC(=O)Nc1cnc2c(ccn2Cc2ccc(C(F)(F)F)cc2)c1 [Compound 4, N-(1-(4-(trifluoromethyl)benzyl)-1H-pyrrolo[2,3-b]pyridin-5-yl)acrylamide]",30 to 50
40 to 80,"C=CC(=O)Nc1ccc2cnn(Cc3ccc(C(F)(F)F)cc3)c2c1 [Compound 17, N-(1-(4-(trifluoromethyl)benzyl)-1H-indazol-6-yl)acrylamide]",30 to 50
40 to 80,"C=CC(=O)Nc1cnc2c(c1)c(C)cn2Cc1ccc(C(F)(F)F)s1 [Compound 63, N-(3-methyl-1-((5-(trifluoromethyl)thiophen-2-yl)methyl)-1H-pyrrolo[2,3-b]pyridin-5-yl)acrylamide]",30 to 50
,"C=CS(=O)(=O)Nc1cnc2ncn(-c3ccc(C4CCCCC4)cc3)c2c1 [Compound 1, N-(1-(4-cyclohexylphenyl)-1H-imidazo[4,5-b]pyridin-6-yl)ethenesulfonamide]",< 30
,"C=CC(=O)Nc1cnc2ncn(-c3ccc(C4CCCCC4)cc3)c2c1 [Compound 2, N-(1-(4-cyclohexylphenyl)-1H-imidazo[4,5-b]pyridin-6-yl)acrylamide]",< 30

Compound,inhibition at 5 µM [2] [%],inhibition at 0.2 µM [1] [%]
"C=CC(=O)Nc1cnc2c(c1)c(C)nn2-c1ccc(OCC(C)C)cc1 [Compound 78, N-(1-(4-isobutoxyphenyl)-3-methyl-1H-pyrazolo[3,4-b]pyridin-5-yl)acrylamide]",40 to 80,< 30
